Reference: patent publication US8338414B2, “Immunosuppressive agent and anti-tumor agent comprising heterocyclic compound as active ingredient” (Zenyaku Kogyo KabushikiKaisha, priority 2005, dated 2012)
Where two headings read alike, the source gives them in different places.

How the values were obtained:
[1] = Test for measuring blood level; assay type: in vivo; conditions: mouse, serum; BDF1 male mice, 200 mg/kg oral, one hour after the administration
Method: A pharmacokinetic study was performed using 6 week-old BDF1 male mice. The test substances were mixed with hydroxylpropylcellulose (low-molecular weight form) [HPC(L)] in 2.5-fold of the drug weight, and dissolved in dichloromethane. The solvent was evaporated to dryness. To make the dosing formation, the residue was suspended in distilled water to prepare the drug level of 20 mg/mL. The test compounds were administered compulsorily and orally at a dose of 200 mg/kg to the mice that had been starved for 16 hours. One hour after the administration, blood was collected from the orbits of two mice to obtain serum. Internal standards solution and 1 ml of distilled water were added to 100 μL, of serum thus obtained, and then extracted with diethylether. The solvent was evaporated under vacuum, and the residue was resolved with eluent to provide samples for the HPLC measurement. HPLC was performed by using reversed-phase type column, and acetonitrile-phosphate buffer (pH 2.5) was used as the eluent. Using regression curves (Y=aX+b) obtained from the standards, the drug levels in the sample serum were calculated.

[2] = tested on: Salmonella typhimurium TA98, TA100, TA1535, TA1537 and Escherichia coli WP2uvrA; assay: Ames test; assay type: cell-based; conditions: preincubation method, with or without S-9, up to 5000 μg/flat plate
Method: Using 5 strains of Salmonella typhimurium TA98, TA100, TA1535, TA1537 and Escherichia coli WP2uvrA, the test substances (Compound 4, Compound 19, Compound 22 and Compound 24) were tested for their mutagenesis according to a preincubation method.

Daudi cells = assay: Proliferation inhibitory activity on hematologic neoplasm cells, Daudi; assay type: cell-based; conditions: Homo sapiens, Daudi, 72 h; 3 days, Alamar Blue
THP-1 cells = assay: Proliferation inhibitory activity on hematologic neoplasm cells, THP-1; assay type: cell-based; conditions: Homo sapiens, THP-1, 72 h; 3 days, Alamar Blue
Jurkat cells = assay: Proliferation inhibitory activity on hematologic neoplasm cells, Jurkat; assay type: cell-based; conditions: Homo sapiens, Jurkat, 72 h; 3 days, Alamar Blue
mouse spleen cells = assay: Proliferation inhibition assay for mouse spleen cells; assay type: cell-based; conditions: 72 h, 3 days, Alamar Blue
Procedure, shortened: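 C57BL/6N female mouse spleen cells (2×10^6 cells/mL) stimulated with Con A (3 μg/mL), LPS (100 μg/mL) or anti-mouse IgM (100 μg/mL) alongside serially diluted compounds, 3 days at 37° C, 5% CO2. Alamar Blue added for a further day; fluorescence read at ex 530/em 590 nm.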

U 937 cells = assay: Proliferation inhibitory activity on hematologic neoplasm cells, U937; assay type: cell-based; conditions: Homo sapiens, U-937, 72 h; 3 days, Alamar Blue
Method: (§1) Daudi cells (5×10^5 cells/mL), Jurkat cells (5×10^5 cells/mL), THP-1 cells (5×10^5 cells/mL), U 937 cells (5×10^5 cells/mL), and HL 60 cells (5×10^5 cells/mL) suspended in RPMI 1640 medium (containing 10% fetal bovine serum, 10 mM HEPES, 1 mM pyruvic acid, 4.5 g/L glucose, 100 units/mL penicillin, and 0.1 mg/mL streptomycin) were seeded in 96 well plates at a capacity of 0.135 mL per well. Serial dilutions of test substances were added to respective wells at 15 μL/well, and incubated under conditions of carbon dioxide 5% at 37° C. for 3 days. Thereafter, Alamar Blue solution was added at 50 μL, and after incubation for one day, the fluorescence intensity at 590 nm using an excitation wavelength of 530 nm was determined by Cytoflour 4000 (Applied Biosystems).

[3] = tested on: Rabbit synoviocytes HIG-82; assay: Inhibition assay for proliferation of rabbit synoviocyte; assay type: cell-based; conditions: Oryctolagus cuniculus, 72 h; HIG-82, 3 days, Alamar Blue
HL 60 cells = assay: Proliferation inhibitory activity on hematologic neoplasm cells, HL60; assay type: cell-based; conditions: Homo sapiens, HL-60, 72 h; 3 days, Alamar Blue
Method: as §1

[4] = tested on: human peripheral blood mononuclear cells; assay: Activation inhibition assay for human peripheral blood mononuclear cells (CD40L, CD69 expression); assay type: cell-based; conditions: PBMC, anti-CD3 + anti-CD28, 6 hours, flow cytometry
Method: In accordance with the method of Assay Example 2, PBMC (2×10^6 cells/mL) was isolated from human peripheral blood, suspended in RPMI 1640 medium (containing 10% fetal bovine serum, 10 mM HEPES, 1 mM pyruvic acid, and 4.5 g/L glucose), and seeded in wells of a 96 well plate at 0.225 mL per well. The test substances were added to respective wells, and then an anti-CD3 antibody (2 μg/mL) and an anti-CD28 antibody (1 μg/mL) were added. Then, after incubation under conditions of carbon dioxide 5% at a temperature 37° C. for 6 hours, the expressions of CD40L and CD69, activation markers, were analysed by flow cytometry. As a result, when the cells were stimulated by both an anti-CD3 antibody and an anti-CD28 antibody, CD40L was expressed on 14.4% of PBMC, which was also CD4 positive. However, the proportion of the cells which expressed CD40L decreased when the cells had been treated with test substances (Compound 4: 4.9%; Compound 20: 3.7%, Compound 24: 3.6%).

[5] = tested on: allogeneic mixed lymphocyte reaction; assay: Allogeneic mixed lymphocyte reaction; assay type: cell-based, mouse; conditions: Mus musculus, Lymphocyte; C57BL/6N spleen stimulator cells, BALB/c lymph node responder cells, 86 hours, BrdU
Method: Spleen cells prepared from C57BL/6N female mice (8-10 weeks old, purchased from Charles River Laboratories Japan Inc.) and peripheral lymph node mononuclear cells prepared from BALB/c female mice (8-10 weeks old, purchased from Charles River Laboratories Japan Inc.) were used as stimulator cells and responder cells, respectively. The respective cells were suspended in RPMI 1640 medium (containing 10% fetal bovine serum, 100 units/mL penicillin, and 0.1 mg/mL streptomycin) (with 2×10^6 cells/mL).

fulminant hepatitis = assay: Fulminant hepatitis model (galactosamine and LPS); assay type: in vivo, mouse; conditions: BALB/c mice, galactosamine 800 mg/kg and LPS 110 μg/kg i.p.
Method: BALB/c male mice (7 weeks old, purchased from Charles River Laboratories Japan Inc.) were used in the experiment. After having orally administered the test substances suspended in 5% HPC, galactosamine (800 mg/kg) and LPS (110 μg/kg) were intraperitoneally administered. Then, survival rates at 72 hours after administration were obtained.

[6] = tested on: human peripheral blood mononuclear cells; assay: Proliferation inhibition assay for human peripheral blood mononuclear cells; assay type: cell-based; conditions: Homo sapiens, 72 h; PBMC, anti-CD3 and anti-CD28 antibody, 3 days, Alamar Blue
Method: 4 mL of blood collected from healthy subjects was placed on 3 mL of MonoPoly Resolving Medium, and after centrifugation, the mononuclear cell (PBMC) fraction was collected. After washing with saline, PBMC (1×10^5 cells/mL) was suspended in RPMI 1640 medium (containing 10% fetal bovine serum, 10 mM HEPES, 1 mM pyruvic acid, and 4.5 g/L glucose). Next, after having added an anti-CD28 antibody (1 μg/mL) to the suspension, they were seeded on an anti-human CD3 T cell activation plate (BD Bioscience) at a capacity of 0.135 mL per well. Then, serial dilutions of test substances were added to respective wells, and incubated under conditions of carbon dioxide 5% at a temperature 37° C. After 3 days, Alamar Blue solution was added at 50 μL per well, and after incubation for one day, a fluorescence intensity at 590 nm using an excitation wavelength of 530 nm was determined by Cytoflour 4000 (Applied Biosystems).

B16F10 melanoma cells = assay: Proliferation inhibitory activity on solid tumor cells, B16F10; assay type: cell-based; conditions: Mus musculus, B16-F10; 72 hours
Method: (§2) Used in the test were MCF-7 cells which were established from human breast cancer and were cultured routinely under the conditions of 37° C. and 5% CO2, in MEM medium supplemented with 10% fetal calf serum, 25 mM of HEPES and 0.1 mg/ml kanamycin. The MCF-7 cells in a logarithmic growth phase were treated with trypsin/EDTA to prepare single cell suspension adjusted to 4.0×10^4 cells/ml in MEM medium (supplemented with 10% fetal calf serum, 25 mM of HEPES and 0.1 mg/ml kanamycin). Test compounds were dissolved in DMSO and diluted with RPMI 1640 medium (supplemented with 10% fetal calf serum, 25 mM of HEPES and 0.1 mg/ml kanamycin) to a concentration of […] to 2.0×10^−9M.
(§3) The cell suspension was filled in a 96-wells microplate at a rate of 0.1 ml per well and was cultured for 24 hours so as to make the cells to adhere to the microplate. Then, it was added with 0.1 ml of the sample solution and cultured at 37° C. for 72 hours in 5% CO2.
(§4) 50% Growth inhibition concentrations (GI50 μM) were calculated from growth inhibitions at various sample concentrations.
(§5) In the foregoing, when the cells other than MCF-7 are used, instead of adding 10% fetal bovine serum, the following media were used, and the following single cell suspensions were prepared. • PC-3 prostate cancer cells: 10% fetal bovine serum in F12K medium, single cell suspension of 2×10^4 cells; • A549 lung cancer cells: 10% fetal bovine serum in DMEM medium, single cell suspension of 1.5×10^4 cells; • WiDr colon cancer cells: 10% fetal bovine serum in MEM medium, single cell suspension of 3×10^4 cells; • B16F10 melanoma cells: 10% fetal bovine serum in RPMI 1640 medium, single cell suspension of 1×10^4 cells;

[7] = tested on: PC-3 prostate cancer cells; assay: Proliferation inhibitory activity on solid tumor cells, PC-3; assay type: cell-based; conditions: 72 hours
Method: as §2, §3, §4, §5

WiDr colon cancer cells = assay: Proliferation inhibitory activity on solid tumor cells, WiDr; assay type: cell-based; conditions: Homo sapiens, 72 hours
Method: as §2, §3, §4, §5

A549 lung cancer cells = assay: Proliferation inhibitory activity on solid tumor cells, A549; assay type: cell-based; conditions: Homo sapiens, 72 hours
Method: as §2, §3, §4, §5

MCF-7 cells = assay: Proliferation inhibitory activity on solid tumor cells, MCF-7; assay type: cell-based; conditions: Homo sapiens, MCF7; 72 hours
Method: as §2, §3, §4

[8] = LPS 100 μg/mL, read-out: Inhibition of LPS response
[9] = concanavalin A 3 μg/mL, read-out: Inhibition of Con A response
[10] = anti-mouse IgM antibody 100 μg/mL, read-out: Inhibition of Anti-IgM antibody response

Row | SMILES | melting point | concentration at 1 h [1] | IC50 (Daudi cells) | IC50 (THP-1 cells) | IC50 (Jurkat cells) | IC50 (mouse spleen cells; [8]) | IC50 (mouse spleen cells; [9]) | further results
1 | CC1(C)CN(c2nc(N3CCOCC3)nc(-n3c(C(F)F)nc4c(Cl)cc(N)cc43)n2)CCO1 [Compound 19, 2-(6-Amino-4-chloro-2-difluoromethylbenzimidazol-1-yl)-4-(2,2-dimethylmorpholino)-6-morpholino-1,3,5-triazine] | 238 °C (dec.) |  | 0.0212 µM | 0.12 µM | 1.6 µM | 0.001 to 0.1 µM | 0.001 to 0.1 µM | mutagenesis (colony number of reverse mutation) [2]: negative
2 | OCC1CCCN1c1nc(N2CCOCC2)nc(-n2c(C(F)F)nc3c(O)cccc32)n1 (centres unmarked) [Compound 20, 2-(2-Difluoromethyl-4-hydroxybenzimidazol-1-yl)-4-(2-hydroxymethylpyrrolidin-1-yl)-6-morpholino-1,3,5-triazine] |  |  | 0.00823 µM | 0.044 µM | 0.196 µM | ≤ 0.001 µM | ≤ 0.001 µM | IC50 (U 937 cells): 0.252 µM; IC50 [3]: 0.122 µM; IC50 (HL 60 cells): 0.0745 µM; proportion of the cells which expressed CD40L ([4]; CD4 positive, 14.4% without test substance): 3.7%; proportion of CD4-positive cells which expressed CD69 ([4]; 28.8% without test substance): 10.1%; proportion of CD4-negative cells which expressed CD69 ([4]; 50.9% without test substance): 10.5%; IC50 [5]: 0.136 µM; Survival Rate after 72 Hours (fulminant hepatitis; 50 mg/kg oral): 17%; Survival Rate after 72 Hours (fulminant hepatitis; 100 mg/kg oral): 72%; IC50 [6]: 0.00815 µM; IC50 (mouse spleen cells; [10]): ≤ 0.001 µM
3 | CC1(C)COCCN1c1cc(N2CCOCC2)nc(-n2c(C(F)F)nc3c(O)cccc32)n1 [Compound 22, 2-(2-Difluoromethyl-4-hydroxybenzimidazol-1-yl)-4-(3,3-dimethylmorpholino)-6-morpholinopyrimidine] | 204 to 206 °C |  |  |  |  | ≤ 0.001 µM | ≤ 0.001 µM | mutagenesis (colony number of reverse mutation) [2]: negative; IC50 (mouse spleen cells; [10]): ≤ 0.001 µM

More lines, main results first:

Row | melting point | concentration at 1 h [1] | SMILES | IC50 (Daudi cells) | IC50 (THP-1 cells) | IC50 (Jurkat cells) | IC50 (mouse spleen cells; [8]) | IC50 (mouse spleen cells; [9]) | further results
4 | 176 to 178 °C | 4.76 µg/mL | COc1cccc2c1nc(C(F)F)n2-c1nc(N2CCOCC2)cc(N2CCO[C@@H](C)[C@H]2C)n1 (relative stereo) [Compound 37, 2-(2-Difluoromethyl-4-methoxybenzimidazol-1-yl)-4-(cis-2,3-dimethylmorpholino)-6-morpholinopyrimidine] |  |  |  |  |  | 
5 | 223 °C | 16.1 µg/mL | CC(=O)N1CCN(c2nc(N3CCOCC3)nc(-n3c(C(F)F)nc4ccccc43)n2)CC1 [Compound 28, 4-(4-acetylpiperazin-1-yl)-2-(2-difluoromethylbenzimidazol-1-yl)-6-morpholino-1,3,5-triazine] | 0.235 µM | 0.496 µM | 1.8 µM | 0.001 to 0.1 µM | ≤ 0.001 µM | IC50 [3]: 1.11 µM; GI50 (B16F10 melanoma cells): 2.66 µM; GI50 [7]: 0.27 µM; GI50 (WiDr colon cancer cells): 1.27 µM; GI50 (A549 lung cancer cells): 0.83 µM; GI50 (MCF-7 cells): 1.21 µM
6 | 166 to 168 °C | 7.17 µg/mL | COc1cccc2c1nc(C(F)F)n2-c1nc(N2CCOCC2)cc(N2CCOC(C)(C)C2)n1 [Compound 36, 2-(2-Difluoromethyl-4-methoxybenzimidazol-1-yl)-4-(2,2-dimethylmorpholino)-6-morpholinopyrimidine] |  |  |  |  |  | 
7 | 114 to 116 °C | 5.91 µg/mL | CCOc1cccc2c1nc(C(F)F)n2-c1nc(N2CCOCC2)cc(N2CCOC(C)(C)C2)n1 [Compound 38, 2-(2-Difluoromethyl-4-ethoxybenzimidazol-1-yl)-4-(2,2-dimethylmorpholino)-6-morpholinopyrimidine] |  |  |  |  |  | 
